The text below walks through data of ChEMBL document CHEMBL3808354, “Synthesis and biological evaluation of oxindole linked indolyl-pyrimidine derivatives as potential cytotoxic agents” (Bioorg Med Chem Lett, 2016).

Series [1] is described as follows: Cytotoxicity against human U87MG cells assessed as decrease in cell viability after 48 hrs by MTT assay. As to conditions: U-87 MG. It counts as functional, cell-based, U-87MG ATCC. (In general: Formazan colour is commonly taken as a measure of viable cells.)
For a further series, the system named is LNCaP. Description: Cytotoxicity against human LNCAP cells assessed as decrease in cell viability after 48 hrs by MTT assay. It counts as functional, cell-based.
Series [2] is described as follows: Cytotoxicity against human RWPE1 cells assessed as decrease in cell viability after 48 hrs by MTT assay. In kind it is cell-based. As to conditions: RWPE-1, 48 h.
The subject of the next series is MCF7. Put plainly: Cytotoxicity against human MCF7 cells assessed as decrease in cell viability after 48 hrs by MTT assay. In kind it is functional, cell-based. As to conditions: MCF7, 48 h.
The nature of series [3]: Cytotoxicity against human PA1 cells assessed as decrease in cell viability after 48 hrs by MTT assay. As to conditions: PA-1, 48 h. In kind it is functional, cell-based.
In series [4] the test system is PA-1. Put plainly: Induction of apoptosis in human PA1 cells assessed as early apoptotic cells at 1 uM after 24 hrs by annexin V-FITC/propidium iodide staining based flow cytometry (reference value: 1.65%). In kind it is functional. For orientation: Flow cytometry measures light scatter and fluorescence of single cells or particles in a stream.
Series [5] is described as follows: Cell cycle arrest in human PA1 cells assessed as accumulation at S phase at 1 uM after 24 hrs by propidium iodide staining based flow cytometry (reference value: 10.25%). In kind it is functional. As to conditions: PA-1.
The test system of series [6] is PA-1. Description: Induction of cell death in human PA1 cells assessed as chromatin condensation at 1 to 2.5 uM after 24 hrs by acridine orange/ethidium bromide staining based fluorescence microscopy. In kind it is functional.
Series [7] relates to PA-1. Description: Induction of morphological changes in human PA1 cells assessed as cell shrinking at 1 to 2.5 uM after 24 hrs by inverted phase contrast microscopy. It counts as functional, cell-based.
Series [8] deals with PA-1. Put plainly: Induction of apoptosis in human PA1 cells assessed as late apoptotic cells at 1 uM after 24 hrs by annexin V-FITC/propidium iodide staining based flow cytometry (reference value: 1.24%). It counts as functional.
The subject of series [9] is PA-1. Description: Induction of morphological changes in human PA1 cells assessed as cell wall deformation at 1 to 2.5 uM after 24 hrs by inverted phase contrast microscopy. In kind it is functional, cell-based.
The nature of series [10]: Cell cycle arrest in human PA1 cells assessed as accumulation at G2/M phase after 24 hrs by propidium iodide staining based flow cytometry. As to conditions: PA-1. In kind it is functional.
Series [11] has as its system PA-1. Description: Induction of cell death in human PA1 cells assessed as membrane blebbing at 1 to 2.5 uM after 24 hrs by acridine orange/ethidium bromide staining based fluorescence microscopy. In kind it is functional.
In series [12] the test system is PA-1. Put plainly: Induction of apoptosis in human PA1 cells assessed as viable cells at 2.5 uM after 24 hrs by annexin V-FITC/propidium iodide staining based flow cytometry (reference value: 97.01%). It counts as functional. As to conditions: PA-1, 24 h, read-out: Activity.
Series [13] deals with PA-1. Put plainly: Antiproliferative activity against human PA1 cells assessed as reduction in viable cells at 1 to 2.5 uM after 24 hrs by inverted phase contrast microscopy. It counts as functional, cell-based.
The subject of series [14] is PA-1. Put plainly: Induction of apoptosis in human PA1 cells assessed as late apoptotic cells at 2.5 uM after 24 hrs by annexin V-FITC/propidium iodide staining based flow cytometry (reference value: 1.24%). In kind it is functional.
For series [15], the system named is PA-1. Put plainly: Induction of apoptosis in human PA1 cells assessed as viable cells at 1 uM after 24 hrs by annexin V-FITC/propidium iodide staining based flow cytometry (reference value: 97.01%). It counts as functional. As to conditions: PA-1, 24 h, read-out: Activity.
In series [16] the test system is PA-1. Description: Induction of cell death in human PA1 cells assessed as apoptotic body formation at 1 to 2.5 uM after 24 hrs by acridine orange/ethidium bromide staining based fluorescence microscopy. In kind it is functional.
For series [17], the system named is PA-1. Put plainly: Induction of apoptosis in human PA1 cells assessed as necrotic cells at 1 uM after 24 hrs by annexin V-FITC/propidium iodide staining based flow cytometry (reference value: 0.10%). It counts as functional.
Series [18] has as its system PA-1. Put plainly: Induction of cell death in human PA1 cells assessed as cell shrinking at 1 to 2.5 uM after 24 hrs by acridine orange/ethidium bromide staining based fluorescence microscopy. It counts as functional.
For series [19], the system named is PA-1. Put plainly: Induction of apoptosis in human PA1 cells assessed as early apoptotic cells at 2.5 uM after 24 hrs by annexin V-FITC/propidium iodide staining based flow cytometry (reference value: 1.65%). In kind it is functional.
In series [20] the test system is PA-1. Put plainly: Induction of apoptosis in human PA1 cells assessed as necrotic cells at 2.5 uM after 24 hrs by annexin V-FITC/propidium iodide staining based flow cytometry (reference value: 0.10%). It counts as functional.
Series [21] is described as follows: Cell cycle arrest in human PA1 cells assessed as accumulation at G0/G1 phase at 2.5 uM after 24 hrs by propidium iodide staining based flow cytometry (reference value: 73.23%). In kind it is functional. As to conditions: PA-1.
The nature of series [22]: Cell cycle arrest in human PA1 cells assessed as accumulation at S phase at 2.5 uM after 24 hrs by propidium iodide staining based flow cytometry (reference value: 10.25%). It counts as functional. As to conditions: PA-1.
Series [23] deals with PA-1. Description: Induction of apoptosis in human PA1 cells after 24 hrs by annexin V-FITC/propidium iodide staining based flow cytometry. In kind it is functional, cell-based.
Series [24] is described as follows: Cell cycle arrest in human PA1 cells assessed as accumulation at G2/M phase at 2.5 uM after 24 hrs by propidium iodide staining based flow cytometry (reference value: 15.72%). It counts as functional. As to conditions: PA-1.
Series [25] is described as follows: Cell cycle arrest in human PA1 cells assessed as accumulation at G2/M phase at 1 uM after 24 hrs by propidium iodide staining based flow cytometry (reference value: 15.72%). It counts as functional. As to conditions: PA-1.
Series [26] in a line: Cell cycle arrest in human PA1 cells assessed as accumulation at G0/G1 phase at 1 uM after 24 hrs by propidium iodide staining based flow cytometry (reference value: 73.23%). As to conditions: PA-1. It counts as functional.
Series [27] in a line: Selectivity ratio of IC50 for human RWPE1 cells to IC50 for human LNCAP cells. In kind it is ADME, cell-based. As to conditions: RWPE1 cells and LNCaP cells, read-out: Ratio IC50.

Activity calls are given as the source filed them. The calls are words filed in the database; no cut-off is given here.

Regarding `CCN(CC)CCNC(=O)c1c(C)[nH]c(/C=C2\C(=O)Nc3ccc(F)cc32)c1C` [SUNITINIB], the IC50 (as a rule, the concentration that gives 50% inhibition) stood at 59.8 µM in [1]; 12.6 µM in the series on LNCaP; 23 µM in series [2]; 23.8 µM with MCF7; 7.97 µM in series [3].

Consider `O=c1[nH]cc(F)c(=O)[nH]1` [FLUOROURACIL], for which the half-maximal inhibitory concentration (IC50) came out at 15.5 µM in series [1], 47.2 µM in the series on LNCaP, 32.3 µM in the series on MCF7 and 8.51 µM in series [3].

Take `Cn1cc(/C=C2/C(=O)Nc3ccccc32)c2cc(Nc3nccc(-c4ccc(Cl)cc4Cl)n3)ccc21`: the half-maximal inhibitory concentration (IC50) in series [1] was 36.8 µM; in the series with LNCaP, more than 100 µM; in the series with MCF7 it was more than 100 µM; in series [3], more than 100 µM.

On to `COc1ccc(-c2ccnc(Nc3ccc4c(c3)c(/C=C3/C(=O)Nc5ccccc53)cn4C)n2)cc1`, for which the IC50 (in series [1]; in the series with LNCaP; in the series with MCF7; in series [3]) was more than 100 µM throughout.

On to `Cn1cc(/C=C2/C(=O)Nc3ccccc32)c2cc(Nc3nccc(-c4ccc(Cl)cc4)n3)ccc21`, for which the Activity with PA-1 [4] is 16.68%; in [5], 13.6%; in the series on PA-1 [8], 7.42%; in series [10], “Dose-dependent effect”; with PA-1 [14], 20.01%; in the series with PA-1 [17], 0.4%. Also, the Activity in the series with PA-1 [19] was 25.18%; in the series on PA-1 [20], 3.03%; in series [21], 57.1%; in [22] it was 10.8%; in the series with PA-1 [23], “Dose-dependent effect”; in [24] it was 31.1%. For the same compound, the Activity was 17.6% in series [25] and 67.8% in series [26]. Besides, the concentration for half-maximal inhibition (IC50) in series [1] worked out at 5.82 µM; with LNCaP it was 6.59 µM; in series [2], 41.1 µM; in the series on MCF7, 23.5 µM; in series [3] it was 2.43 µM. The outcome with PA-1 [6], with PA-1 [7], in the series on PA-1 [9], with PA-1 [11], in the series with PA-1 [13] and with PA-1 [16] was Active. In the series with PA-1 [18], the outcome was Active. Also, in the series on PA-1 [12], the viability at 2.5 µM came out at 51.8%. The viability at 1 µM in the series on PA-1 [15] was found to be 75.5%.

`Cn1cc(/C=C2/C(=O)Nc3ccccc32)c2cc(Nc3nccc(-c4cccs4)n3)ccc21`: the 50% inhibitory concentration (IC50) in series [1] turned out to be 7.18 µM; in the series with LNCaP, 10.3 µM; in [2], 64.9 µM; in the series with MCF7, 30.8 µM; in series [3] it was 7.94 µM.

In the case of `Cn1cc(/C=C2/C(=O)Nc3ccccc32)c2cc(Nc3nccc(-c4ccccc4)n3)ccc21`, the IC50 in [1] was determined as 14.1 µM; in the series with LNCaP, 13.4 µM; in series [2], 95.6 µM; in the series on MCF7, 42.9 µM; in series [3] it was 17.3 µM.

As to `Cn1cc(/C=C2/C(=O)Nc3ccccc32)c2cc(Nc3nccc(-c4ccc(F)cc4)n3)ccc21`, the IC50 in series [1] is 16.4 µM; in the series with LNCaP, 16.3 µM; in [2] it was 168 µM; in the series on MCF7, 48.1 µM; in series [3] it was 31.8 µM. In addition, the selectivity ratio in series [27] stood at 10.3.

Consider `Cn1cc(/C=C2/C(=O)Nc3ccccc32)c2cc(Nc3nccc(-c4cccnc4)n3)ccc21`, for which the concentration for half-maximal inhibition (IC50) in series [1] was determined as 14.8 µM; in the series with LNCaP it was 14.2 µM; in series [2] it was 69.8 µM; in the series with MCF7, 46.6 µM; in series [3] it was 18.1 µM.

Take `Cc1ccc(-c2ccnc(Nc3ccc4c(c3)c(/C=C3/C(=O)Nc5ccccc53)cn4C)n2)cc1`: the 50% inhibitory concentration (IC50) (in series [1]; with LNCaP; with MCF7; in series [3]) was more than 100 µM each time.

Regarding `Cn1cc(/C=C2/C(=O)Nc3ccccc32)c2cc(Nc3nccc(-c4ccc(C(F)(F)F)cc4)n3)ccc21`, the IC50 in [1] is 26 µM; with LNCaP, more than 100 µM; in the series on MCF7, 65.2 µM; in series [3], 63.9 µM.

Take `Cn1cc(/C=C2/C(=O)Nc3ccccc32)c2cc(Nc3nccc(-c4ccc(O)cc4)n3)ccc21`: the 50% inhibitory concentration (IC50) was found to be 13.2 µM in series [1]; 10.8 µM in the series with LNCaP; 58.4 µM in series [2]; 39.6 µM in the series on MCF7; 9.27 µM in series [3].
